Reference: patent US20240238426A1, “PROTEIN ACYLATION MODULATION BY HETEROBIFUNCTIONAL MOLECULES” (THE SCRIPPS RESEARCH INSTITUTE, priority 2021, published 2024)

Key:
[1] = target: T1, FKBP12^F36V and the bromodomain of p300 (BRD-p300) (Homo sapiens, UniProt P62942+Q09472, F37V); assay: GST-FKBP12^F36V/His-P300-BRD AlphaScreen assay, ternary complex formation; assay type: binding; conditions: FIG. 3B
T1 construct: A construct containing residues 2-108 of FKBP12^F36V in pGEX4t-1 vector; the BRD domain of p300 (BRD-p300); purchased) 31372; host or cells: E. coli BL21(DE3) (GST-FKBP12^F36V)
Description: GST-FKBP12^F36V/His-P300-BRD AlphaScreen Assay: GST-FKBP12^F36V and 6xHis-p300-BRD (active motif #31372) were diluted to 250 nM and 500 nM, in assay buffer (50 mM HEPES pH 7.4, 200 mM NaCl, 1 mM TCEP, and 0.1% BSA), […] of protein mixture was added to each well of a 1/2 area 96-well OptiPlate (PerkinElmer). Compounds were then added from DMSO stock to protein mixture ([…]) with 1% DMSO in final mixture. Plates were then shaken orbitally at room temperature for 1 h. Nickel Chelate AlphaLISA Acceptor and Glutathione AlphaLISA Donor beads (PerkinElmer) diluted to 20 ng/ml in assay buffer and […] beads mixture was added to each well. After a 1 h orbital shaking at room temperature. luminescence was measured on the Envision 2104 plate reader (PerkinElmer). Data were plotted and analyzed using GraphPad PRISM v8 and fit with ‘Bell-shaped’ dose response curve.

p300 = target: T2, p300 (Homo sapiens, UniProt Q09472); assay: In-situ photocrosslinking with p300-p probe and competition by AceTAG-1 in HEK293T cells; assay type: cell-based; conditions: increasing concentrations of AceTAG-1, 30 min, FIG. 3F
T2 construct: expressed in transfected cells; host or cells: HEK293T (transient)
Description: In-situ photocrosslinking with p300-BRD photocrosslinking probe and competition by AceTAG-1: At 50%-70% confluency, HEK293t cells in 6-well plates were transfected with pSG5-HA-p300. After 24 h, cells were co-treated for 30 min with […] p300-p probe and increasing concentration of AceTAG-1 in serum-free media. Cells then underwent UV-photocrosslinking (365 nm) for 20 min at 4° C. and harvested in cold DPBS by scraping and centrifugation. Cell pellets were washed with cold DPBS two times and aspirated. Cells were then lysed in 200 μL DPBS buffer supplemented with 1X Halt protease inhibitor cocktail. Lysate was fractionated by ultracentrifuge (100000 g, 45 min, 4° C.) to provide soluble fraction (supernatant) and membrane fraction (pellets). Soluble fraction was normalized to 2 mg/mL, underwent click reaction with Rhodamine-azide as previously described. Proteins (25 μg total protein loaded per gel lane) were resolved using SDS-PAGE (6% acrylamide). In-gel fluorescence visualization and immunoblot analysis was carried out as previously described.

[2] = tested on: T3, FKBP12^F36V-p53 (Homo sapiens, F37V); assay: Immunoblot analysis of FKBP12^F36V-p53 acetylation in H1299 cells; assay type: cell-based
T3 construct: expressed in transfected cells
Description: Lentivirus Production and Transduction: Lentiviral production was performed using HEK293T cells, which were co-transfected with pMD2.G (Addgene, #12259), psPAX2 (Addgene, #12260), and AceTAG lentiviral plasmids using PEI (Polysciences Inc). Viral particles were collected 72 h after transfection and filtered through a […] membrane. A range of dilutions of the lentivirus in DMEM complete and 10 μg/mL polybrene were added to HeLa, H1299, or HeLa RelA KO cell lines. Transduced cells were selected with 1 μg/mL or 2 μg/mL puromycin.
Immunoblotting: Cells were harvested in cold DPBS by scraping and washed with cold DPBS twice. Cell pellets were resuspended in DPBS supplemented with 5 mM sodium butyrate, 20 mM Nicotinamide, and 1X Halt Protease Inhibitor Cocktail and lysed by sonication (15 ms on, 40 ms off, 15% amplitude, 1s total on x 3). Protein concentration was determined using DC Protein Assay (Bio-Rad) and absorbance read using a CLARIOstar plate reader following manufacturer's instructions. Samples with equal protein content were boiled in 4X SDS gel loading buffer for 10 min. Proteins were separated by 10%, 12.5%, or 15% SDS-polyacrylamide gel electrophoresis and transferred to PVDF membranes using Trans-Blot Turbo RTA Mini […] LF PVDF Transfer Kit (Bio-Rad). Membranes were incubated for 1 h at room temperature with blocking buffer, followed by incubating overnight at 4° C. with primary antibodies. After washing in TBST, the secondary antibodies were incubated with the membranes at room temperature for 1 h. The membranes were washed with TBST for three times and visualized on a Bio-Rad ChemiDoc MP Imaging System with Clarity Max Western ECL substrate (Bio-Rad) or SuperSignal West Femto Chemiluminescent substrate proprietary luminol and peroxide solution kit (Thermo Scientific Pierce).

FKBP12^F36V = target: T4, FKBP12^F36V (Homo sapiens, UniProt P62942, F37V); assay: AceTAG-1 target engagement: FKBP-p photo-crosslinking probe competition in HEK293T cells; assay type: cell-based; conditions: 0.5 μM FKBP-p probe, increasing concentrations of AceTAG-1, 30 min, FIG. 3E
T4 construct: expressed in transfected cells; host or cells: HEK293T (transient)
Description: AceTAG-1 Target Engagement: At 50%-70% confluency, HEK293t cells in 6-well plates were transfected with pLEX305-C-dTAG-H3.3. After 24 h, cells were co-treated for 30 min with 0.5 μM FKBP-p probe and increasing concentration of AceTAG-1 in serum-free DMEM media. Cells then underwent UV-photocrosslinking (365 nm) for 20 min at 4° C., harvested in cold DPBS by scraping and centrifugation, cell pellets were washed with cold DPBS two times and aspirated. Cells were then lysed in 400 μL DPBS buffer supplemented with 0.2% SDS (w/v) and 1X Halt protease inhibitor cocktail. Lysate was then normalized to 1.5 mg/mL. […] Proteins (25 μg total protein loaded per gel lane) were resolved using SDS-PAGE (10% acrylamide) and visualized by in-gel fluorescence on Bio-Rad ChemiDoc MP Imaging System. Gel fluorescence and imaging was processed using Image Lab (v 6.0.1) software. […] Chemiluminescence was recorded with Bio-Rad ChemiDoc MP Imaging System and processed using Image Lab (v 6.0.1) software.

T3 sequence (P62942 2-108 F37V limits assumed): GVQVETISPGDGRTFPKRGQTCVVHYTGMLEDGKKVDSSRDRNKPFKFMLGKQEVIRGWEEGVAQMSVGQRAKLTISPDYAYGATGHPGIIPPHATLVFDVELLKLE
T3 sequence (Q09472 2-2414 limits assumed, stated change not applied, further chain): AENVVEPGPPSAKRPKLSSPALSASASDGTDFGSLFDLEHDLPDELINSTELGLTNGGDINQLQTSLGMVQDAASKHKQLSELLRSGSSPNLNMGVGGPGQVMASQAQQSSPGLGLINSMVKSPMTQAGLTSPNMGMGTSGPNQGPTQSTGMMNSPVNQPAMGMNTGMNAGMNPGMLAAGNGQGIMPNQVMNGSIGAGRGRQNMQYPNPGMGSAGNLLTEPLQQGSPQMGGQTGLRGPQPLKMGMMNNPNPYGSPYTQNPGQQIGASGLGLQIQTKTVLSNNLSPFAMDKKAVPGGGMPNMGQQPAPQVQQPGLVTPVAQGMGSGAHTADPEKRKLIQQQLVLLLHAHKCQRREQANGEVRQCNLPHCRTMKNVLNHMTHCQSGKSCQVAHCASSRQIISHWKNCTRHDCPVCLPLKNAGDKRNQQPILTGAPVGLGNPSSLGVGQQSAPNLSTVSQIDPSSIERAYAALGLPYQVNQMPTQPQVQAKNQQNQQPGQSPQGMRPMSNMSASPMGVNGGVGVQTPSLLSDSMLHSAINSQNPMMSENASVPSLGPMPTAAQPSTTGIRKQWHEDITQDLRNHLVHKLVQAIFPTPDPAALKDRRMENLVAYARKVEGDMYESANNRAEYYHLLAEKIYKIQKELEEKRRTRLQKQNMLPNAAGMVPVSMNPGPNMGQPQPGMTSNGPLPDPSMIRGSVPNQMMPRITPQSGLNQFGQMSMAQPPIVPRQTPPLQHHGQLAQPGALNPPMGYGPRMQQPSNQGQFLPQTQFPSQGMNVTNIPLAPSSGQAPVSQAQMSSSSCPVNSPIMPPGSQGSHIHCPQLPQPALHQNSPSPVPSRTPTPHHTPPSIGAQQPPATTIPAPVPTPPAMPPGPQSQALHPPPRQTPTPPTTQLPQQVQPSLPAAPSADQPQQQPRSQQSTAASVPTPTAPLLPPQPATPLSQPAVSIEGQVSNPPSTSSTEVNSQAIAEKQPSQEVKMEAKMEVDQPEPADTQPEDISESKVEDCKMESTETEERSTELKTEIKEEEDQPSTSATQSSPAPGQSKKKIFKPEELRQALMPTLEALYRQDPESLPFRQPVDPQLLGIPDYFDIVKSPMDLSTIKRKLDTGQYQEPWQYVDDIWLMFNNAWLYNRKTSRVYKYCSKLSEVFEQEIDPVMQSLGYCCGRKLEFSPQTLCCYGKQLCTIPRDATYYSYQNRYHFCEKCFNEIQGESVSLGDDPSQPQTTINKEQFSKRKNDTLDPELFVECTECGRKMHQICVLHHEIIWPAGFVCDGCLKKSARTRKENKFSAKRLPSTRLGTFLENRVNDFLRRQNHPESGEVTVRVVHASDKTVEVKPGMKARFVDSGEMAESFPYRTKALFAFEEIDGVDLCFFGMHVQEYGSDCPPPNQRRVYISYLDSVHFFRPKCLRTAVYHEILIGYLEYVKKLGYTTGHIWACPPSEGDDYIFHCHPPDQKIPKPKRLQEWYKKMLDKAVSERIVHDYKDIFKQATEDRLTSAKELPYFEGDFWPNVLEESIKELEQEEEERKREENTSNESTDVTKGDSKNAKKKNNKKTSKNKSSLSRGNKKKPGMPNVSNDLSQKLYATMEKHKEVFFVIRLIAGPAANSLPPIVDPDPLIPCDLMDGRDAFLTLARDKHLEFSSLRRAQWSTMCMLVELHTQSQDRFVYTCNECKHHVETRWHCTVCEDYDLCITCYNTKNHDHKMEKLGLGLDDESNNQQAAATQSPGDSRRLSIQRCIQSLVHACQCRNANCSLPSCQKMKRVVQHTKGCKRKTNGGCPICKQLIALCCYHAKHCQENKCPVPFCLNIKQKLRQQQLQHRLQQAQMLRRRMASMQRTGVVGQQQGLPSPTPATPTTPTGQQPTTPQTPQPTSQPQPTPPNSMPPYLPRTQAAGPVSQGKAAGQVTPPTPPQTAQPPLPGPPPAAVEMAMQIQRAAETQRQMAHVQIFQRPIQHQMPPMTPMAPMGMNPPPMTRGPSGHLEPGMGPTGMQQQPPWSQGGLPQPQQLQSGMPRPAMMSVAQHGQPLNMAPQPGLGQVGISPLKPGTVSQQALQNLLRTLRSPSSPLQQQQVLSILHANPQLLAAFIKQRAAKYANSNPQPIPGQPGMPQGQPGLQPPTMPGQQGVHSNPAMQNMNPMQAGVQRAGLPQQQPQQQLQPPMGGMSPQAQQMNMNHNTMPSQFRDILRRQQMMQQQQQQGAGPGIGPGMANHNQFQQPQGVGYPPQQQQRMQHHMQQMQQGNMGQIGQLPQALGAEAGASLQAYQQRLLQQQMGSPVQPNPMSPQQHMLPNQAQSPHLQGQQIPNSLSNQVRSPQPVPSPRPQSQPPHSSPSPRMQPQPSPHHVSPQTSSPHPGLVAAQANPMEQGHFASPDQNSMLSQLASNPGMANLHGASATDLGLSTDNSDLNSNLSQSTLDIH
T1 sequence (P62942 2-108 F37V): as the sequence (P62942 2-108 F37V limits assumed) above
T1 sequence (Q09472 1049-1156): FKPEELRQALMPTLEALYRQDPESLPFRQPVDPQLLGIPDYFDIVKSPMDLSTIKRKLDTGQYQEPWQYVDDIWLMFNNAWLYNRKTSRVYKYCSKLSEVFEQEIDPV
T4 sequence (P62942 2-108 F37V limits assumed): as the sequence (P62942 2-108 F37V limits assumed) above
T2 sequence (Q09472 whole entry, species assumed): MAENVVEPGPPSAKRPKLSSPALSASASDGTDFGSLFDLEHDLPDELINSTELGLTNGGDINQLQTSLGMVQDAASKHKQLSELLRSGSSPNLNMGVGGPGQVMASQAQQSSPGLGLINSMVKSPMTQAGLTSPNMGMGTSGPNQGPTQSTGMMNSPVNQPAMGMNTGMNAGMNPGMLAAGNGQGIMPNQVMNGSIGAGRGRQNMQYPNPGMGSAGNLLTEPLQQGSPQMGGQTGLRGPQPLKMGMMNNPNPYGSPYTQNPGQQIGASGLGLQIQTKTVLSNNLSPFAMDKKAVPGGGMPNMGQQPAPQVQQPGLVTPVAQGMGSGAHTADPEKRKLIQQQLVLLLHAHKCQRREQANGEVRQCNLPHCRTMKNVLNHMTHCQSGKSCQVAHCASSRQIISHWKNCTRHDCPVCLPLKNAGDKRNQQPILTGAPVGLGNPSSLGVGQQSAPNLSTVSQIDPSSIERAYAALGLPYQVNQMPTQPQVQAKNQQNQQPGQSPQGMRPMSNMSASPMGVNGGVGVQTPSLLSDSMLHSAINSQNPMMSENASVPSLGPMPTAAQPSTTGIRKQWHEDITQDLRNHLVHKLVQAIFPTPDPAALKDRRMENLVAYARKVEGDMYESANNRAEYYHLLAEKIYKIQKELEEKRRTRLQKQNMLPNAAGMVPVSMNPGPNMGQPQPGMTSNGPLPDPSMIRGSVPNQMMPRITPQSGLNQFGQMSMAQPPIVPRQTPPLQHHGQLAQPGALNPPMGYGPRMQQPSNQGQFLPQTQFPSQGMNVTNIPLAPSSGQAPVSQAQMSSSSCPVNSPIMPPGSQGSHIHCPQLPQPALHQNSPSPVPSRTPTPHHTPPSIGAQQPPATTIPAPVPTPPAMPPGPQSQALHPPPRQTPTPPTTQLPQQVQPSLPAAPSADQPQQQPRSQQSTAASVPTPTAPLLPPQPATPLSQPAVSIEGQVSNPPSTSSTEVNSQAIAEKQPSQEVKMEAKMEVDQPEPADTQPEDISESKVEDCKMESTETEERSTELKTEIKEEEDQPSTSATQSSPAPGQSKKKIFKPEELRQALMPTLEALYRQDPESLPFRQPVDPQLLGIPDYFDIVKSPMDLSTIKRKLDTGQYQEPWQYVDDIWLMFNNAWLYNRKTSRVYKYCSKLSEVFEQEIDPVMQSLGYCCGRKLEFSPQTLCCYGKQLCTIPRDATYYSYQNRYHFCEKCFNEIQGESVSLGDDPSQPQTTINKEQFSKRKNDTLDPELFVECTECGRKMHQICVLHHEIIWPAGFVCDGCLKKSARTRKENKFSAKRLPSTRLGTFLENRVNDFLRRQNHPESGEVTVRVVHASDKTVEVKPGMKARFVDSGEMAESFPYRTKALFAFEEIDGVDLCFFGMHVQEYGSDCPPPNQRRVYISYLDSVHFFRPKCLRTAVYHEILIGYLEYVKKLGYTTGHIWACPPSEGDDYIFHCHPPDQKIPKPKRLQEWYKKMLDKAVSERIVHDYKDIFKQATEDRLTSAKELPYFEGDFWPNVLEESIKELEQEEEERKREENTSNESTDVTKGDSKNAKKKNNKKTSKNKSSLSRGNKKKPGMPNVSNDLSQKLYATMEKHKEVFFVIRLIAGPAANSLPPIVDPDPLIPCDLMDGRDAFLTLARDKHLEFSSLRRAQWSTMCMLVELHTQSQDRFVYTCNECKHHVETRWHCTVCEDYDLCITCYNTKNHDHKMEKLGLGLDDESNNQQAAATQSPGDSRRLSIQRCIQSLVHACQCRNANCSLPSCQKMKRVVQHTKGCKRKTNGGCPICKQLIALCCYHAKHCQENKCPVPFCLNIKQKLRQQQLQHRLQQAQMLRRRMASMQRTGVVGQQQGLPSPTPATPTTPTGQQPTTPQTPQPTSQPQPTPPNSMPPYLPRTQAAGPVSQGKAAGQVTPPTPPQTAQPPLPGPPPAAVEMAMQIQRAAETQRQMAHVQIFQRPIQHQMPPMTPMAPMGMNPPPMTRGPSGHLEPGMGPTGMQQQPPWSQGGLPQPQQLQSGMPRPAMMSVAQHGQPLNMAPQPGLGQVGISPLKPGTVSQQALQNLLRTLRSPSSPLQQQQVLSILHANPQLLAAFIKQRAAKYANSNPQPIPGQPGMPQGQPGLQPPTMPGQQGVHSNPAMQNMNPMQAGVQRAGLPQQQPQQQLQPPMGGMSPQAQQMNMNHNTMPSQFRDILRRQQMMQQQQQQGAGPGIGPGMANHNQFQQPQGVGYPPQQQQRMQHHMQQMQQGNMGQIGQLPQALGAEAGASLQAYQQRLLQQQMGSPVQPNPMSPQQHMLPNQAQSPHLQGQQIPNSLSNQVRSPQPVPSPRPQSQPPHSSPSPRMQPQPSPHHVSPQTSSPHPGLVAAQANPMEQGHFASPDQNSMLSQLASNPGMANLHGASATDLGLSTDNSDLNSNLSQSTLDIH

CC[C@H](C(=O)N1CCCC[C@H]1C(=O)O[C@H](CCc1ccc(OC)c(OC)c1)c1cccc(OCC(=O)NCCOCCOCCC(=O)NCCOc2ccc(CCc3nc4cc(-c5c(C)noc5C)ccc4n3CCN3CCOCC3)cc2)c1)c1cc(OC)c(OC)c(OC)c1 [AceTAG-1, (R)-3-(3,4-dimethoxyphenyl)-1-(3-((15-(4-(2-(5-(3,5-dimethylisoxazol-4-yl)-1-(2-morpholinoethyl)-1H-benzo[d]imidazol-2-yl)ethyl)phenoxy)-2,12-dioxo-6,9-dioxa-3,13-diazapentadecyl)oxy)phenyl)propyl (S)-1-((S)-2-(3,4,5-trimethoxyphenyl)butanoyl)piperidine-2-carboxylate]
concentration of maximum complex formation ([1]; FKBP12^F36V and BRD-p300, AlphaScreen): ~1 µM
AceTAG-mediated ternary complex formation (AlphaScreen curve) ([1]; bell-shaped dose response fit): increased potence relative to other analogues
competition of p300-p probe binding to p300 (p300): efficiently competed
p53 acetylation at higher AceTAG-1 concentrations ([2]; FIG. 6C): apparent acetylation autoinhibition
treatment time after which a significant level of p53 acetylation is detectable ([2]; FIG. 9E): ~10 min
p53 acetylation at K305, K373, and K382 ([2]; indicated doses, 2 hr, FIG. 6C): strong AceTAG-1-dependent acetylation
competition of FKBP-p probe binding to FKBP12^F36V (FKBP12^F36V): efficiently competed
